{"source": "patent US10239887B2", "about": "“Positive allosteric modulators of the muscarinic acetylcholine receptor M4” (Vanderbilt University, priority 2016, dated 2019)", "target": "T1, human mAChR M4 (Homo sapiens, UniProt P08173)", "T1 sequence (P08173 1-479)": "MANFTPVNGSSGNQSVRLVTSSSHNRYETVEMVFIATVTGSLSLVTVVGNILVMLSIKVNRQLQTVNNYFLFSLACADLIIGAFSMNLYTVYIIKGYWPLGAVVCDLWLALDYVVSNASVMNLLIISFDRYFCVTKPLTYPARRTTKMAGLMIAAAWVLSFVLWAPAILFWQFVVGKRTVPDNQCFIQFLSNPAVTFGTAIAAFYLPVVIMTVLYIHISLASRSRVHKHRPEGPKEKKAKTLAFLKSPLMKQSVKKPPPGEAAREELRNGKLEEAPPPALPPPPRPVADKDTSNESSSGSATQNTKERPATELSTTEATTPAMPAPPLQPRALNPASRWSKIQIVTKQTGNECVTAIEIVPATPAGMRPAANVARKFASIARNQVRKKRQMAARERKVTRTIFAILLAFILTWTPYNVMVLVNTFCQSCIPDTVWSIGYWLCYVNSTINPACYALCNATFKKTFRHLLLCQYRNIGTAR", "experiment": "mAChR M4 cell-based functional assay (calcium flux), human M4", "details": "for EC50: Human M4 EC50, CHO-K1 hM4-Gqi5 cells, calcium flux, increase in EC20 acetylcholine response", "key": {"[1]": {"details": "Human M4, % ACh maximum at 30 μM"}}, "note": "Where a name gives a salt, the structure may show the parent alone. Read-outs that look alike come from different tables or passages of the source."}
{"smiles": "Cc1cnc2sc3c(N4CCCC4)ncnc3c2c1", "note": "[Compound 15, 8-methyl-4-(pyrrolidin-1-yl) pyrido[3′,2′:4,5]thieno [3,2-d]pyrimidine]", "values": [{"measurement": "Emax", "setting": "[1]", "value": 40, "unit": "%"}]}
{"smiles": "Cc1cnc2sc3c(N4CCC(F)(F)C4)ncnc3c2c1", "note": "[Compound 16, 4-(3,3-difluoropyrrolidin-1-yl)-8-methylpyrido [3′,2′:4,5]thieno[3,2-d] pyrimidine]", "values": [{"measurement": "Emax", "setting": "[1]", "value": 360, "unit": "%"}, {"measurement": "EC50", "value": 377, "unit": "nM"}]}
{"smiles": "Cc1nnc2sc3c(N4CC(F)(F)C4)ncnc3c2c1C", "note": "[Compound 21, 8-(3,3-difluoroazetidin-1-yl)-3,4-dimethylpyrimido [4′,5′:4,5]thieno[2,3-c] pyridazine]", "values": [{"measurement": "Emax", "setting": "[1]", "value": 64, "unit": "%"}, {"measurement": "EC50", "value": 426, "unit": "nM"}]}
{"smiles": "Cc1nnc2sc3c(NC4CN(c5ccc(C(F)(F)F)nc5)C4)ncnc3c2c1C", "note": "[Compound 22, 3,4-dimethyl-N-(1-(6-(trifluoromethyl)pyridin-3-yl)azetidin-3-yl) pyrimido[4′,5′:4,5]thieno [2,3-c]pyridazin-8-amine]", "values": [{"measurement": "Emax", "setting": "[1]", "value": 36, "unit": "%"}, {"measurement": "EC50", "value": "≥ 10000", "unit": "nM"}]}
{"smiles": "Cc1nnc2sc3c(NC4CCN(c5ccccc5)C4)ncnc3c2c1C", "note": "(stereo not drawn) [Compound 23, 3,4-dimethyl-N-(1-phenylpyrrolidin-3-yl) pyrimido[4′,5′:4,5]thieno [2,3-c]pyridazin-8-amine]", "values": [{"measurement": "Emax", "setting": "[1]", "value": 27, "unit": "%"}, {"measurement": "EC50", "value": "≥ 10000", "unit": "nM"}]}
{"smiles": "Cc1nnc2sc3c(NC4CC4)ncnc3c2c1C", "note": "[Compound 25, N-cyclopropyl-3,4-dimethylpyrimido [4′,5′:4,5]thieno[2,3-c] pyridazin-8-amine]", "values": [{"measurement": "Emax", "setting": "[1]", "value": 79, "unit": "%"}, {"measurement": "EC50", "value": 468, "unit": "nM"}]}
{"smiles": "COc1ccc(C2CC2Nc2ncnc3c2sc2nnc(C)c(C)c23)cc1", "note": "(stereo not drawn) [Compound 26, N-(2-(4-methoxyphenyl)cyclopropyl)-3,4-dimethylpyrimido [4′,5′:4,5]thieno[2,3-c] pyridazin-8-amine]", "values": [{"measurement": "Emax", "setting": "[1]", "value": 44, "unit": "%"}, {"measurement": "EC50", "value": "≥ 10000", "unit": "nM"}]}
{"smiles": "COc1ccc(CNc2ncnc3c2sc2nnc(C)c(C)c23)cc1F", "note": "[Compound 27, N-(3-fluoro-4-methoxybenzyl)-3,4-dimethylpyrimido [4′,5′:4,5]thieno[2,3-c] pyridazin-8-amine]", "values": [{"measurement": "Emax", "setting": "[1]", "value": 62, "unit": "%"}]}
{"smiles": "Cc1nnc2sc3c(N4CCC(c5ccccc5)C4)ncnc3c2c1C", "note": "(stereo not drawn) [Compound 28, 3,4-dimethyl-8-(3-phenylpyrrolidin-1-yl) pyrimido[4′,5′:4,5]thieno [2,3-c]pyridazine]", "values": [{"measurement": "Emax", "setting": "[1]", "value": 49, "unit": "%"}]}
{"smiles": "Cc1nnc2sc3c(NCc4ccc(-c5cccnc5F)cc4)ncnc3c2c1C", "note": "[Compound 29, N-(4-(2-fluoropyridin-3-yl)benzyl)-3,4-dimethylpyrimido [4′,5′:4,5]thieno[2,3-c] pyridazin-8-amine]", "values": [{"measurement": "Emax", "setting": "[1]", "value": 61, "unit": "%"}, {"measurement": "EC50", "value": 4050, "unit": "nM"}]}
{"smiles": "Cc1nnc2sc3c(N4CC(Oc5ccc(F)cc5)C4)ncnc3c2c1C", "note": "[Compound 30, 8-(3-(4-fluorophenoxy)azetidin-1-yl)-3,4-dimethylpyrimido [4′,5′:4,5]thieno[2,3-c] pyridazine]", "values": [{"measurement": "Emax", "setting": "[1]", "value": 65, "unit": "%"}, {"measurement": "EC50", "value": 2610, "unit": "nM"}]}
{"smiles": "Cc1nnc2sc3c(N4CC(Oc5ccccc5F)C4)ncnc3c2c1C", "note": "[Compound 31, 8-(3-(2-fluorophenoxy)azetidin-1-yl)-3,4-dimethylpyrimido [4′,5′:4,5]thieno[2,3-c] pyridazine]", "values": [{"measurement": "Emax", "setting": "[1]", "value": 60, "unit": "%"}, {"measurement": "EC50", "value": 2160, "unit": "nM"}]}
{"smiles": "Cc1nnc2sc3c(N4CC(Oc5cccc(F)c5)C4)ncnc3c2c1C", "note": "[Compound 32, 8-(3-(3-fluorophenoxy)azetidin-1-yl)-3,4-dimethylpyrimido [4′,5′:4,5]thieno[2,3-c] pyridazine]", "values": [{"measurement": "Emax", "setting": "[1]", "value": 62, "unit": "%"}, {"measurement": "EC50", "value": 1760, "unit": "nM"}]}
{"smiles": "Cc1nnc2sc3c(N4CC(Oc5ccccc5)C4)ncnc3c2c1C", "note": "[Compound 33, 3,4-dimethyl-8-(3-phenoxyazetidin-1-yl) pyrimido[4′,5′:4,5]thieno [2,3-c]pyridazine]", "values": [{"measurement": "Emax", "setting": "[1]", "value": 54, "unit": "%"}, {"measurement": "EC50", "value": 4430, "unit": "nM"}]}
{"smiles": "Cc1nnc2sc3c(N4CC(C)(O)C4)ncnc3c2c1C", "note": "[Compound 34, 1-(3,4-dimethylpyrimido [4′,5′:4,5]thieno[2,3-c]pyridazin-8-yl)-3-methylazetidin-3-ol]", "values": [{"measurement": "Emax", "setting": "[1]", "value": 59, "unit": "%"}, {"measurement": "EC50", "value": 660, "unit": "nM"}]}
{"smiles": "CC(=O)N1CC(Nc2ncnc3c2sc2nnc(C)c(C)c23)C1", "note": "[Compound 35, 1-(3-((3,4-dimethylpyrimido [4′,5′:4,5]thieno[2,3-c]pyridazin-8-yl)amino)azetidin-1-yl)ethan-1-one]", "values": [{"measurement": "Emax", "setting": "[1]", "value": 79, "unit": "%"}, {"measurement": "EC50", "value": 53, "unit": "nM"}]}
{"smiles": "Cc1nnc2sc3c(N4CC(=O)C4)ncnc3c2c1C", "note": "[Compound 36, 1-(3,4-dimethylpyrimido [4′,5′:4,5]thieno[2,3-c]pyridazin-8-yl) azetidin-3-one]", "values": [{"measurement": "Emax", "setting": "[1]", "value": 64, "unit": "%"}, {"measurement": "EC50", "value": 1000, "unit": "nM"}]}
{"smiles": "Cc1nc2oc3c(NCc4ccc(C(C)(C)O)cc4)ncnc3c2c(C)c1Cl", "note": "[Compound 39, 2-[4-[[(8-chloro-7,9-dimethyl-pyrido[3′,2′:4,5]furo[3,2-d]pyrimidin-4-yl)amino]methyl]phenyl] propan-2-ol]", "values": [{"measurement": "Emax", "setting": "[1]", "value": 61.8, "unit": "%"}, {"measurement": "EC50", "value": 110, "unit": "nM"}]}
{"smiles": "CNc1ncnc2c1oc1nc(C)c(Cl)c(C)c12", "note": "[Compound 44, 8-chloro-N,7,9-trimethyl-pyrido[3′,2′:4,5]furo[3,2-d]pyrimidin-4-amine hydrochloride]", "values": [{"measurement": "Emax", "setting": "[1]", "value": 39.8, "unit": "%"}, {"measurement": "EC50", "value": 1690, "unit": "nM"}]}
{"smiles": "CCNc1ncnc2c1oc1nc(C)c(Cl)c(C)c12", "note": "[Compound 47, 8-chloro-N-ethyl-7,9-dimethyl-pyrido[3′,2′:4,5]furo[3,2-d]pyrimidin-4-amine hydrochloride]", "values": [{"measurement": "Emax", "setting": "[1]", "value": 40.6, "unit": "%"}, {"measurement": "EC50", "value": 1250, "unit": "nM"}]}
{"smiles": "Cc1nc2oc3c(NC4CC4c4ccc(F)c(F)c4)ncnc3c2c(C)c1Cl", "note": "(stereo not drawn) [Compound 51, 8-chloro-N-[2-(3,4-difluorophenyl)cyclopropyl]-7,9-dimethyl-pyrido [3′,2′:4,5]furo[3,2-d]pyrimidin-4-amine hydrochloride]", "values": [{"measurement": "Emax", "setting": "[1]", "value": 70, "unit": "%"}, {"measurement": "EC50", "value": 7840, "unit": "nM"}]}
{"smiles": "Cc1cc(C)c2c(n1)oc1c(NC3CCC3)ncnc12", "note": "[Compound 55, N-Cyclobutyl-7,9-dimethyl-pyrido[3′,2′:4,5]furo[3,2-d]pyrimidin-4-amine hydrochloride]", "values": [{"measurement": "Emax", "value": 44.2, "unit": "%"}, {"measurement": "EC50", "value": 1590, "unit": "nM"}]}
{"smiles": "Cc1cc(C)c2c(n1)oc1c(N3CC4(COC4)C3)ncnc12", "note": "[Compound 56, 7,9-dimethyl-4-(2-oxa-6-azaspiro[3.3]heptan-6-yl)pyrido[3′,2′:4,5]furo[3,2-d]pyrimidine]", "values": [{"measurement": "Emax", "setting": "[1]", "value": 37.7, "unit": "%"}, {"measurement": "EC50", "value": 3370, "unit": "nM"}]}
{"smiles": "Cc1cc(C)c2c(n1)oc1c(NCc3cccc(C(C)(C)O)c3)ncnc12", "note": "[Compound 57, 2-[3-[[(7,9-dimethylpyrido[3′,2′:4,5]furod[3,2-]pyrimidin-4-yl)amino]methyl]phenyl] propan-2-ol]", "values": [{"measurement": "Emax", "setting": "[1]", "value": 23.7, "unit": "%"}, {"measurement": "EC50", "value": 4270, "unit": "nM"}]}
{"smiles": "Cc1cc(C)c2c(n1)oc1c(NC3CN(c4ncc(F)cn4)C3)ncnc12", "note": "[Compound 59, N-[1-(5-fluoropyrimidin-2-yl)azetidin-3-yl]-7,9-dimethyl-pyrido[3′,2′:4,5]furo[3,2-d]pyrimidin-4-amine hydrochloride]", "values": [{"measurement": "Emax", "setting": "[1]", "value": 34.9, "unit": "%"}]}
{"smiles": "Cc1cc(C)c2c(n1)oc1c(NC3CN(c4cc(Cl)ncc4Cl)C3)ncnc12", "note": "[Compound 60, N-[1-(2,5-dichloro-4-pyridyl)azetidin-3-yl]-7,9-dimethyl-pyrido[3′,2′:4,5]furo[3,2-d]pyrimidin-4-amine dihydrochloride]", "values": [{"measurement": "Emax", "value": 49.3, "unit": "%"}, {"measurement": "EC50", "value": 1490, "unit": "nM"}]}
{"smiles": "Cc1cc(C)c2c(n1)oc1c(NC3CC3c3ccc(F)c(F)c3)ncnc12", "note": "(stereo not drawn) [Compound 61, hydrochloride]", "values": [{"measurement": "Emax", "setting": "[1]", "value": 56.3, "unit": "%"}, {"measurement": "EC50", "value": 3380, "unit": "nM"}]}
{"smiles": "Cc1cc(C)c2c(n1)oc1c(NC3CC3)ncnc12", "note": "[Compound 62, N-cyclopropyl-7,9-dimethyl-pyrido[3′,2′:4,5]furo[3,2-d]pyrimidin-4-amine hydrochloride]", "values": [{"measurement": "Emax", "value": 63.9, "unit": "%"}]}
